Columns and labels:
[1] = system: human prostate cancer cell line DU145; assay: Inhibition of proliferation of prostate cancer cell line DU145 (CellTiter Glo luminescence); format: cell-based; details: DU145 cells; for inhibitory activity against cell proliferation: cell-penetrating peptide substituted or removed, same way as Example 2; for cell proliferation (without synthetic peptide set to 100): final concentration 30 μM
Experimental: (§1) Human prostate cancer cell line DU145 was cultured in DMEM containing 10% fetal cattle serum (FCS) at 37° C. and 5% CO2 with passaging. DU145 cells were seeded into 96-well plates at 5000 cells/well, then cultured at 37° C. for 24 hours, and then further cultured for 48 hours in 10% FCS-containing DMEM that contains each of the synthesized peptides of Example 1 at a final concentration of 1 μM, 10 μM, 50 μM or 100 μM. The medium was discarded after culturing, and then 25 μL of 50-fold diluted solution of CellTiter Glo Reagent (Promega) (diluted with PBS (−) containing 0.1% NP-40) was added to each well. Next, the resulting solution was shaken at room temperature for 10 minutes, and then luminescence level was measured with a plate reader (Infinite M200, Tecan). A relative luminescence level of each synthetic peptide was calculated when the average luminescence level measured for control cells cultured in 10% FCS-containing DMEM without any synthetic peptide was set to 100, and was used as an index of cell proliferation.
The peptides listed in Table 2 below were designed and evaluated for their inhibitory activities against proliferation of DU145 cells in the same way as in Example 2. Each of the peptides 4T-2-D-1-4, 4H-2-D-1-4 and 4F-2-D-1-4 is a peptide in which the octaarginine sequence of the peptide 42-D-1-4 is substituted with an amino acid sequence of another cell-penetrating peptide, and each has, from the N-terminal side, an amino acid sequence of TAT peptide, HTLV-II-Rex or FHV coat (35-49), a linker sequence of one Gly residue, and an amino acid sequence corresponding to G45-Y51 of the PH domain. The peptides #R8(−)-2-D-1, #R8(−)-2-D-1-4 and #R8(−)-6-A-2 are peptides with the octaarginine sequence and the linker sequence removed from the peptides #2-D-1, #2-D-1-4 and #6-A-2, respectively.
The peptides listed in Table 3 below were designed and evaluated for their inhibitory activities against proliferation of DU145 cells, in the same way as in Example 2 except that the final concentrations of the synthetic peptides were set to 3 μM, 10 μM and 30 μM. The peptides #2-D-1-4-1A to #2-D-1-4-7A are peptides in which GLTIYFY (SEQ ID NO: 36) of peptide #2-D-1-4 was substituted with Ala one by one from the N-terminal side.

[2] = system: human cervical cancer cell line HeLa; assay: Inhibition of proliferation of HeLa cells; format: cell-based; details: same manner as Example 2
[3] = system: human liver cancer cell line Hep3B; assay: Inhibition of proliferation of Hep3B cells; format: cell-based; details: same manner as Example 2
[4] = system: human lung cancer cell line A549; assay: Inhibition of proliferation of A549 cells; format: cell-based; details: A549, same manner as Example 2
[5] = system: human glioma cell line U251; assay: Inhibition of proliferation of U251 cells; format: cell-based; details: U251, same manner as Example 2
[6] = system: human melanoma cell line A375; assay: Inhibition of proliferation of A375 cells; format: cell-based; details: A375, same manner as Example 2
Experimental: as §1, with “proliferation. […]” for “proliferation.”

[7] = system: human pancreatic cancer cell line BxPC3; assay: Inhibition of proliferation of BxPC3 cells; format: cell-based; details: BxPC3, same manner as Example 2
[8] = system: human breast cancer cell line T47D; assay: Inhibition of proliferation of T47D cells; format: cell-based; details: cultured 96 hours with peptide
[9] = system: Cyclin D1 (Ccnd1); assay: Real-time PCR of Cyclin D1 gene expression in DU145 cells; format: cell-based, human; details: peptide 10 μM, 15 and 30 minutes
Experimental: (§2) DU145 cells, cultured in DMEM containing 10% fetal cattle serum (FCS) at 37° C. and 5% CO2 with passage, were seeded into 6-well plates at 5.0×10^5 cells/well, and then cultured at 37° C. for 24 hours. The cells were incubated for 2 hours in serum-free DMEM. Then, the synthetic peptide #2-D-1-4 (final concentration 10 μM) was added, and cells were collected 15 minutes later and 30 minutes later. Cells without addition of any synthetic peptide were prepared in the same way.
(§3) Total RNA was extracted from the cells with use of TRIzol (Thermo Fisher Scientific). cDNA was synthesized from the total RNA with use of ReverTra Ace (TOYOBO) and random hexamer primers. Real-time PCR was carried out with the following primer sets and MX3000P (Agilent Technologies, Inc.) to measure the relative gene expression levels of Cyclin D1 (Ccnd1), which is associated with cell proliferation, and Survivin, which is associated with cancer cell survival.

[10] = system: Survivin; assay: Real-time PCR of Survivin gene expression in DU145 cells; format: cell-based, human; details: peptide 10 μM, 15 and 30 minutes
Experimental: as §2, §3

[11] = biological target: T1, EGFR/STAP-2 interaction (EGFR-HA and GST-STAP-2) (Homo sapiens, UniProt P00533, C187G/DEL142-186); assay: GST pull-down and immunoblot of EGFR/STAP-2 interaction; format: binding; details: HEK293T lysate, peptide 1 μM or 50 μM, 4° C. 1 hour
T1 construct: expressed in transfected cells; host or cells: HEK293T

[12] = system: DU145 cells; assay: Antitumor effect in DU145 tumor-bearing model; format: in vivo, BALB/c nude mice; details: 2 mg/body intratumoral
Experimental: DU145 cells (5.0×10^6 cells) were injected subcutaneously into right flank of BALB/c nude mice (female, 4 weeks old). On days 14, 17 and 20 after implantation, solvent (5% DMSO, control) or the synthetic peptide #2-D-1-4 (2 mg/body) was intratumorally administered. Tumor diameters were measured with calipers every 3 days starting on day 14 after implantation, and tumor volumes (longer diameter×shorter diameter×shorter diameter/2) were calculated. The mice were euthanized on day 32 after implantation, then tumor mass were collected and their weights were measured.

GLTIYFY [#R8(−)-2-D-1-4]
inhibitory activity against cell proliferation [1]: none

GRKKRRQRRRPPQGGLTIYFY [#T-2-D-1-4]
inhibitory activity against cell proliferation [1]: the same extent of inhibitory activity against cell proliferation as that of the peptide #2-D-1-4

QGLTIYFYN [#R8(−)-2-D-1]
inhibitory activity against cell proliferation [1]: none

RRRRNRTRRNRRRVRGGLTIYFY [#F-2-D-1-4]
inhibitory activity against cell proliferation [1]: the same extent of inhibitory activity against cell proliferation as that of the peptide #2-D-1-4

RRRRRRRRGG GATIYFY (RRRRRRRRGGGATIYFY) [#2-D-1-4-2A]
cell proliferation (without synthetic peptide set to 100) [1]: approximately 50%

RRRRRRRRGG GLAIYFY (RRRRRRRRGGGLAIYFY) [#2-D-1-4-3A]
cell proliferation (without synthetic peptide set to 100) [1]: approximately 50%

RRRRRRRRGG GLTIYAY (RRRRRRRRGGGLTIYAY) [#2-D-1-4-6A]
cell proliferation (without synthetic peptide set to 100) [1]: approximately 50%

RRRRRRRRGG GLTIYFY (RRRRRRRRGGGLTIYFY) [#2-D-1-4]
activity to inhibit proliferation [2]: exhibited the activity to inhibit proliferation | activity to inhibit proliferation [3]: exhibited the activity to inhibit proliferation | activity to inhibit proliferation [4]: exhibited the activity to inhibit proliferation | activity to inhibit proliferation [5]: exhibited the activity to inhibit proliferation | activity to inhibit proliferation [6]: exhibited the activity to inhibit proliferation | activity to inhibit proliferation [7]: exhibited the activity to inhibit proliferation | activity to inhibit proliferation [8]: exhibited the activity to inhibit proliferation | gene expression level of Ccnd1 [9]: reduced | gene expression level of Survivin [10]: reduced | complex between EGFR-HA and GST-STAP-2 in pull-down fraction [11]: not detected | final weight of the tumor mass compared to the control ([12]; days 14, 17 and 20, day 32 after implantation): significant reduction | tumor volume compared to the control ([12]; days 14, 17 and 20 after implantation): inhibition of increase in tumor volume

TRRQRTRRARRNRGGLTIYFY [#H-2-D-1-4]
inhibitory activity against cell proliferation [1]: the same extent of inhibitory activity against cell proliferation as that of the peptide #2-D-1-4

VVELRVP [#R8(−)-6-A-2]
inhibitory activity against cell proliferation [1]: none
